Source: patent US6329399A, “Antifungal amine derivatives and processing for producing the same” (Pola Chemical Industries, Inc., priority 1997, dated 2001)
Values after ≈ are worked out from the molar mass of the structure shown.

What was measured:
Experiment in all cases: Measurement of antimycotic activity (minimum inhibitory concentration, MIC) against dermatophyte
Type in all cases: cell-based
[1] = system: T. mentagrophytes IF05811; settings: Trichophyton mentagrophytes, 168 h, Sabouraud's agar pH=5.9, 27° C., 1 week
Procedure: (§1) The antimycotic activity of the compounds of the invention against dermatophyte was examined.
(§2) More particularly, the test dermatophyte strains shown in Tables 9 and 10 below were cultivated in advance on a slant culture of Sabouraud's agar medium (manufactured by Nissui Seiyaku Co., Ltd.; 1.0% peptone, 4.0% glucose, 1.5% agar, pH=5.9) at 27° C. for 2 weeks to allow them to grow conidia sufficiently. Then, sterilized physiological saline containing 0.05 weight/volume % of Tween 80 was added to the culture and while rubbing the surface of the culture with a platinum loop, the conidia were separated and caused to float. Using a hemocytometer, the filtrate was adjusted with sterilized physiological saline such that the concentration of conidia was 10^6 cells/ml, which was used as a test microbe liquid.
(§3) On the other hand, PR compounds and AD compounds (test drugs) of the present invention obtained in the examples described above were taken each in an amount of 10 mg, and 1 ml of dimethyl sulfoxide was added thereto to form a stock solution, of which 500 μl was taken and 500 μl of dimethyl sulfoxide was added thereto to prepare a 2-fold dilution. The same operation was repeated to prepare 13-stages ranging from 10 to 0.0025 mg/ml (final concentration of test system 100 to 0.025 μg/ml) of diluted drug solutions. Solutions with various diluted concentrations of test drug were each dispensed in sterilized petri dish with an amount of 100 μl. Then, 10 ml of sterile-dissolved Sabouraud's agar medium (1.0% peptone, 4.0% glucose, 1.5% agar, pH=5.9) was added, well mixed and solidified. Then, 5 μl of the test microbe solution previously adjusted were added using a microplanter, respectively.
(§4) The results are shown in Table 9 for PR compounds and in Table 10 for AD compounds, respectively. In the column of Compound No. in Tables 9 and 10, "PR-" or "AD-" were omitted.

[2] = system: T. mentagrophytes TIMM1177; settings: Trichophyton mentagrophytes, 168 h, Sabouraud's agar pH=5.9, 27° C., 1 week
Procedure: as §1, §2, §3, §4

M. canis TIMM0760 = settings: Microsporum canis, 168 h, Sabouraud's agar pH=5.9, 27° C., 1 week
Procedure: as §1, §2, §3, §4

T. rubrum IF09185 = settings: Trichophyton rubrum, 168 h, Sabouraud's agar pH=5.9, 27° C., 1 week
Procedure: as §1, §2, §3, §4

T. rubrum IF05808 = settings: Trichophyton rubrum, 168 h, Sabouraud's agar pH=5.9, 27° C., 1 week
Procedure: as §1, §2, §3, §4

T. violaceum TIMM1264 = settings: Trichophyton violaceum, 168 h, Sabouraud's agar pH=5.9, 27° C., 1 week
Procedure: as §1, §2, §3, §4

[3] = system: T. mentagrophytes IF07552; settings: Trichophyton mentagrophytes, 168 h, Sabouraud's agar pH=5.9, 27° C., 1 week
Procedure: as §1, §2, §3, §4

M. gypseum IF08231 = settings: Nannizzia gypsea, 168 h, Sabouraud's agar pH=5.9, 27° C., 1 week
Procedure: as §1, §2, §3, §4

[4] = system: T. mentagrophytes TIMM1189; settings: Trichophyton mentagrophytes, 168 h, Sabouraud's agar pH=5.9, 27° C., 1 week
Procedure: as §1, §2, §3, §4

Structure (SMILES)	MIC [1] [µg/mL]	MIC [2] [µg/mL]	MIC (M. canis TIMM0760) [µg/mL]	MIC (T. rubrum IF09185) [µg/mL]	MIC (T. rubrum IF05808) [µg/mL]	MIC (T. violaceum TIMM1264) [µg/mL]	MIC [3] [µg/mL]	MIC (M. gypseum IF08231) [µg/mL]	MIC [4] [µg/mL]
C=C(CN(C)Cc1ccc(C(C)(C)C)cc1)c1ccccc1C [Compound AD-028, N-(4-tert-butylbenzyl)-N-methyl-[2-(2-methylphenyl)-2-propenyl]amine]	6.25 (≈ 20.3 µM)	6.25 (≈ 20.3 µM)	3.12 (≈ 10.1 µM)	3.12 (≈ 10.1 µM)	3.12 (≈ 10.1 µM)	6.25 (≈ 20.3 µM)	3.12 (≈ 10.1 µM)	6.25 (≈ 20.3 µM)	6.25 (≈ 20.3 µM)
C=C(CN(C)Cc1ccc(C(C)(C)C)cc1)c1ccccc1[N+](=O)[O-] [Compound AD-033, N-(4-tert-butylbenzyl)-N-methyl-[2-(2-nitrophenyl)-2-propenyl]amine]	6.25 (≈ 18.5 µM)	12.5 (≈ 36.9 µM)	6.25 (≈ 18.5 µM)	3.12 (≈ 9.22 µM)	3.12 (≈ 9.22 µM)	12.5 (≈ 36.9 µM)	6.25 (≈ 18.5 µM)	12.5 (≈ 36.9 µM)	12.5 (≈ 36.9 µM)
C=C(CN(C)Cc1ccc(C(C)(C)C)cc1)c1cccc([N+](=O)[O-])c1 [Compound AD-037, N-(4-tert-butylbenzyl)-N-methyl-[2-(3-nitrophenyl)-2-propenyl]amine]	1.56 (≈ 4.61 µM)	1.56 (≈ 4.61 µM)	0.78 (≈ 2.3 µM)	0.78 (≈ 2.3 µM)	0.78 (≈ 2.3 µM)	3.12 (≈ 9.22 µM)	1.56 (≈ 4.61 µM)	3.12 (≈ 9.22 µM)	3.12 (≈ 9.22 µM)
C=C(CN(C)Cc1ccc(C(C)(C)C)cc1)c1ccc(C)c(C)c1 [Compound AD-043, N-(4-tert-butylbenzyl)-N-methyl-[2-(3,4-dimethylphenyl)-2-propenyl]amine]	1.56 (≈ 4.85 µM)	1.56 (≈ 4.85 µM)	0.78 (≈ 2.43 µM)	0.78 (≈ 2.43 µM)	0.2 (≈ 0.622 µM)	1.56 (≈ 4.85 µM)	1.56 (≈ 4.85 µM)	1.56 (≈ 4.85 µM)	1.56 (≈ 4.85 µM)
C=C(CN(C)Cc1ccc(C(C)(C)C)cc1)c1ccc(C)cc1C [Compound AD-046, N-(4-tert-butylbenzyl)-N-methyl-[2-(2,4-dimethylphenyl)-2-propenyl]amine]	6.25 (≈ 19.4 µM)	12.5 (≈ 38.9 µM)	6.25 (≈ 19.4 µM)	3.12 (≈ 9.7 µM)	1.56 (≈ 4.85 µM)	12.5 (≈ 38.9 µM)	6.25 (≈ 19.4 µM)	12.5 (≈ 38.9 µM)	12.5 (≈ 38.9 µM)
C=C(CN(C)Cc1ccc(C(C)(C)C)cc1)c1cccc(C#N)c1 [Compound AD-052, 3-[1-{N-(4-tert-butylbenzyl)-N-methylamino}methyl]vinylbenzonitrile]	0.39 (≈ 1.22 µM)	0.78 (≈ 2.45 µM)	0.39 (≈ 1.22 µM)	0.39 (≈ 1.22 µM)	0.39 (≈ 1.22 µM)	1.56 (≈ 4.9 µM)	0.78 (≈ 2.45 µM)	0.39 (≈ 1.22 µM)	0.78 (≈ 2.45 µM)
CN(CC(=O)c1ccccc1O)Cc1ccc(C(C)(C)C)cc1 [Compound AD-057, 2-[N-(4-tert-butylbenzyl)-N-methylamino]-2'-hydroxyacetophenone]	12.5 (≈ 40.1 µM)	12.5 (≈ 40.1 µM)	6.25 (≈ 20.1 µM)	6.25 (≈ 20.1 µM)	3.12 (≈ 10 µM)	6.25 (≈ 20.1 µM)	12.5 (≈ 40.1 µM)	12.5 (≈ 40.1 µM)	12.5 (≈ 40.1 µM)
C=C(CN(C)C/C=C/C#CC(C)(C)C)c1ccccc1 [Compound PR-1258, Trans-N-(6,6-dimethyl-2-hepten-4-ynyl)-N-methyl-2-phenyl-2-propenylamine]	1.56 (≈ 5.83 µM)	0.78 (≈ 2.92 µM)	0.39 (≈ 1.46 µM)	0.78 (≈ 2.92 µM)	0.39 (≈ 1.46 µM)	1.56 (≈ 5.83 µM)	0.78 (≈ 2.92 µM)	1.56 (≈ 5.83 µM)	0.78 (≈ 2.92 µM)
C=C(CN(C)C/C=C/C#CC(C)(C)C)c1ccc(F)cc1 [Compound PR-1430, trans-N-(6,6-dimethyl-2-hepten-4-ynyl)-N-methyl-[2-(4-fluorophenyl)-2-propenyl]amine]	0.39 (≈ 1.37 µM)	0.39 (≈ 1.37 µM)	0.39 (≈ 1.37 µM)	0.39 (≈ 1.37 µM)	0.39 (≈ 1.37 µM)	0.39 (≈ 1.37 µM)	0.39 (≈ 1.37 µM)	6.25 (≈ 21.9 µM)	0.39 (≈ 1.37 µM)
C=C(CN(C)C/C=C/C#CC(C)(C)C)c1cccc(Br)c1 [Compound PR-1484, Trans-N-(6,6-dimethyl-2-hepten-4-ynyl)-N-methyl-[2-(3-bromophenyl)-2-propenyl]amine]	0.1 (≈ 0.289 µM)	0.1 (≈ 0.289 µM)	0.1 (≈ 0.289 µM)	0.1 (≈ 0.289 µM)	0.1 (≈ 0.289 µM)	0.1 (≈ 0.289 µM)	0.2 (≈ 0.578 µM)	0.39 (≈ 1.13 µM)	0.39 (≈ 1.13 µM)
C=C(CN(C)C/C=C/C#CC(C)(C)C)c1ccccc1F [Compound PR-1491, Trans-N-(6,6-dimethyl-2-hepten-4-ynyl)-N-methyl-[2-(2-fluorophenyl)-2-propenyl]amine]	0.39 (≈ 1.37 µM)	0.39 (≈ 1.37 µM)	0.1 (≈ 0.35 µM)	0.39 (≈ 1.37 µM)	0.1 (≈ 0.35 µM)	0.39 (≈ 1.37 µM)	0.39 (≈ 1.37 µM)	6.25 (≈ 21.9 µM)	0.39 (≈ 1.37 µM)
C=C(CN(C)C/C=C/C#CC(C)(C)C)c1ccccc1Br [Compound PR-1505, trans-N-(6,6-dimethyl-2-hepten-4-ynyl)-N-methyl-[2-(2-bromophenyl)-2-propenyl]amine]	1.56 (≈ 4.5 µM)	1.56 (≈ 4.5 µM)	0.39 (≈ 1.13 µM)	1.56 (≈ 4.5 µM)	0.39 (≈ 1.13 µM)	0.39 (≈ 1.13 µM)	1.56 (≈ 4.5 µM)	6.25 (≈ 18 µM)	1.56 (≈ 4.5 µM)
C=C(CN(C)C/C=C/C#CC(C)(C)C)c1ccccc1C [Compound PR-1533, trans-N-(6,6-dimethyl-2-hepten-4-ynyl)-N-methyl-[2-(o-tolyl)-2-propenyl]amine]	0.39 (≈ 1.39 µM)	0.39 (≈ 1.39 µM)	0.39 (≈ 1.39 µM)	0.39 (≈ 1.39 µM)	0.39 (≈ 1.39 µM)	0.39 (≈ 1.39 µM)	1.56 (≈ 5.54 µM)	6.25 (≈ 22.2 µM)	0.39 (≈ 1.39 µM)
C=C(CN(C)C/C=C/C#CC(C)(C)C)c1cccc(C)c1 [Compound PR-1540, trans-N-(6,6-dimethyl-2-hepten-4-ynyl)-N-methyl-[2-(m-tolyl)-2-propenyl]amine]	0.1 (≈ 0.355 µM)	0.39 (≈ 1.39 µM)	0.1 (≈ 0.355 µM)	0.1 (≈ 0.355 µM)	0.1 (≈ 0.355 µM)	0.1 (≈ 0.355 µM)	0.39 (≈ 1.39 µM)	1.56 (≈ 5.54 µM)	0.1 (≈ 0.355 µM)
C=C(CN(C)C/C=C/C#CC(C)(C)C)c1ccc(O)cc1 [Compound PR-1606, Trans-N-(6,6-dimethyl-2-hepten-4-ynyl)-N-methyl-[2-(4-hydroxyphenyl)-2-propenyl]amine]	25 (≈ 88.2 µM)	50 (≈ 176 µM)	25 (≈ 88.2 µM)	50 (≈ 176 µM)	25 (≈ 88.2 µM)	50 (≈ 176 µM)	50 (≈ 176 µM)	25 (≈ 88.2 µM)	50 (≈ 176 µM)
CN(C/C=C/C#CC(C)(C)C)CC(=O)c1ccccc1O [Compound PR-1620, Trans-2-[N-(6,6-dimethyl-2-hepten-4-ynyl)-N-methylamino]-2'-hydroxyacetophenone]	12.5 (≈ 43.8 µM)	12.5 (≈ 43.8 µM)	12.5 (≈ 43.8 µM)	12.5 (≈ 43.8 µM)	6.25 (≈ 21.9 µM)	12.5 (≈ 43.8 µM)	6.25 (≈ 21.9 µM)	25 (≈ 87.6 µM)	12.5 (≈ 43.8 µM)
C=C(CN(C)C/C=C/C#CC(C)(C)C)c1ccccc1N [Compound PR-1672, Trans-N-(6,6-dimethyl-2-hepten-4-ynyl)-N-methyl-[2-(2-aminophenyl)-2-propenyl]amine]	3.12 (≈ 11 µM)	3.12 (≈ 11 µM)	1.56 (≈ 5.52 µM)	1.56 (≈ 5.52 µM)	0.78 (≈ 2.76 µM)	3.12 (≈ 11 µM)	1.56 (≈ 5.52 µM)	3.12 (≈ 11 µM)	3.12 (≈ 11 µM)
C=C(CN(C)C/C=C/C#CC(C)(C)C)c1cc(F)cc(F)c1 [Compound PR-2159, Trans-N-(6,6-dimethyl-2-hepten-4-ynyl)-N-methyl-[2-(3,5-difluorophenyl)-2-propenyl]amine]	0.2 (≈ 0.659 µM)	0.2 (≈ 0.659 µM)	0.05 (≈ 0.165 µM)	0.1 (≈ 0.33 µM)	0.1 (≈ 0.33 µM)	0.2 (≈ 0.659 µM)	0.2 (≈ 0.659 µM)	0.2 (≈ 0.659 µM)	0.1 (≈ 0.33 µM)
